Among the data in PubChem BioAssay AID504867 (The Scripps Research Institute Molecular Screening Center, 2011) are EC50 values, retold here.

The experiment concerns the target Sphingosine 1-phosphate receptor 5 (Homo sapiens) (UniProt Q9H228). The experiment can be described thus: S1P5 receptor agonists, human, late-stage follow-up, counter-screen for S1P4 agonist project, cell-based, fluorescence, set 2 (AID 504867). The following applies: S1P5 agonist cell assay, fluorescence read-out.

Chain of Sphingosine 1-phosphate receptor 5 (Homo sapiens) (Q9H228 whole entry, looked up): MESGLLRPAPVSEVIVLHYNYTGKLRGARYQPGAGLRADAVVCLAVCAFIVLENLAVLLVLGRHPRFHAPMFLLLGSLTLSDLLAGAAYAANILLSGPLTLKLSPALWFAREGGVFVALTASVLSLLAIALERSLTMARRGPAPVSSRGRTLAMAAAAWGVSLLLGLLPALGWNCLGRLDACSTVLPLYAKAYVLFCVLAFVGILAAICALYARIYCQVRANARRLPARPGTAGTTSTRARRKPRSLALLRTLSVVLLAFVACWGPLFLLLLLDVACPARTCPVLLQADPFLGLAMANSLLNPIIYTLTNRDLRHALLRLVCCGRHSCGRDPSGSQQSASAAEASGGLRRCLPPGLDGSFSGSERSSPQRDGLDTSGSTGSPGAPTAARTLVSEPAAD

Take `COCCN=C1S/C(=C\c2cc(C)n(-c3ccc(F)cc3F)c2C)C(=O)N1C`: the EC50 is 2.1 µM.
